In patent US20250326799A1, “AGENTS INDUCING VASCULARISATION” (Coegin Pharma AB, priority 2022, published 2025):
Entries after “also recorded” stand apart in the source; their conditions may differ.

Columns and labels:
Type in all cases: cell-based
[1] = test system: human coronary smooth muscle cells (HCASMCs); assay: H2O2 measurement after oxLDL, smooth muscle cells; settings: smooth muscle cells pre-incubated with peptide; 50 ug/ml oxLDL for 2 hours
Experimental: (§1) The effect of FOL-026 peptide treatment on smooth muscle cell proliferation (FIG. 25a) and apoptosis (FIG. 25c) induced with low-oxygen condition was evaluated with the uptake of BrdU (n=10 per group) and active caspase-3/-7 (n=6-8 per group) separately. H2O2 measurement (FIG. 25b) of smooth muscle cells pre-incubated with FOL-26 peptides after 50 ug/ml oxidized Low-density Lipoprotein (oxLDL) stimulation for 2 hours (n=6-7 per group). Representative images of scratch wound assay in vitro are shown (FIG. 26a) and the ability of wound healing (FIG. 26b) in human coronary smooth muscle cells (HCASMCs) treated with FOL-026 peptides was measured by image J software (n=10 per group). Scale bar=150 um. Data are presented as means±SEM and acquired from 3 to 4 independent replicate tests. *P<0.05, **P<0.01, ***P<0.001, ****P<0.0001 by one-way ANOVA and Dunnett's post-hoc test.

[2] = test system: Human coronary artery smooth cells (HCASMCs); assay: Gene expression by PCR in arterial smooth muscle cells
Experimental: Cells on 6-well plates were washed with cold DPBS (Gibco, USA) and homogenized in Trizol reagent (Invitrogen, CA, USA). Total RNA was extracted using PureLink RNA Mini Kit (Invitrogen, CA, USA), followed by nucleic acid quantification with NanoDrop 2000c (Thermo Fisher Scientific, USA). To determine mRNA expression of target genes, real-time qPCR was performed using by KAPA SYBR FAST One-Step qRT-PCR Master Mix Kit (KAPA Biosystems, USA) on LightCycler480 system (Roche, Mannheim, Germany). All primers were purchased from miScript Primer Assays (Qiagen, Valencia, CA) and GAPDH mRNA expression of each sample was used for normalization. Cells on 6-well plates were washed with cold DPBS and lysed with the mixture of lysis buffer and protease inhibitors on ice, then centrifuged at 15,000 g for 20 min at 4° C. Supernatant was performed to measure the protein concentration using BCA Protein Assay Kit (Thermo Fisher Scientific, USA). Protein sample was loaded onto SDS-PAGE gels and separated with electrophoresis, followed by transferred to PVDF membranes (Millipore, USA). Membranes were blocked with 5% nonfat milk. Primary antibodies (Abcam, UK) and secondary antibodies were performed to incubate with membranes at 4° C. overnight and at room temperature for 1 hour respectively.

[3] = test system: human coronary smooth muscle cells (HCASMCs); assay: In vitro scratch wound closure, HCASMCs; settings: for wound closure (scratch wound assay): HCASMCs
Experimental: as §1
qRT-PCR analysis of NRP-1 mRNA expression in HCASMCs with small interfering RNA transfection for 48 hours (n=4) (FIG. 27a). The assessment of BrdU incorporation (FIG. 27b, n=10-11) and caspase-3/-7 activation (FIG. 27c, n=3-10) in siRNA-NC/siNRP-1-transfected […] treated with indicated concentration of FOL-026 peptide. The wound closure rate (FIG. 28b) of HCASMCs in siRNA-NC and siNRP-1 group stimulated with increasing concentration of FOL-026 peptide was quantified by image J software (n=9-12 per group). Scale bar=150 um. Data are presented as means±SEM and acquired from 3 to 4 independent replicate tests. *P<0.05, **P<0.01, ***P<0.001, ****P<0.0001 by Student's t test for A, two-way ANOVA followed with Sidak's and Dunnett's multiple comparisons test.
The effect of FOL-005 peptide on smooth muscle cell proliferation (FIG. 30a) was determined with BrdU incorporation in peptide-treated human coronary smooth muscle cells (HCASMCs). Scratch wound assay (FIG. 30b) of HCASMCs incubated with FOL-005 peptides for 5 hours was measured by image J software (n=10-12 per group) and representative pictures of smooth muscle cell migration into an in vitro scratch injury were shown (FIG. 30c). Scale bar=150 um.

[4] = test system: Human umbilical cord endothelial cells (HUVECs); assay: sFasL-induced apoptosis, caspase 3 and 7 activation, HUVECs; settings: 10 nM, 100 nM, 1000 nM
Experimental: Human Umbilical Vein Endothelial Cells (HUVECs) and Human Coronary Artery Smooth Muscle Cells (HCASMCs) were purchased from Thermo Fisher. Cells were grown in Medium 200 containing 2% Low Serum Growth Supplement and Medium 231 with 5% Smooth Muscle Growth Supplement (Invitrogen, CA, USA) respectively with addition of Antibiotic-Antimycotic (1%, Invitrogen, CA, USA). Test polypeptide and sFasL (PeproTech, NJ, USA) were dissolved in the respective complete medium.
Caspase-Glo 3/7 Assay (Promega, USA) was performed to evaluate cell apoptosis. HUVECs and HCASMCs were seeded into 96-well plates at a density of 3-5×10^3 per well. For additional NRP-1 on cells transfected siRNA, NRP-1 was added 24 hours after transfection and the mixture of Caspase-Glo 3/7 was added 48 hours after polypeptide stimulations. Subsequent steps were performed as manufacturer's instructions using the FOL26 and FOL56 as test compounds. Data were read by Wallac 1420 Victor 2 (Perkin Elmer, USA).

[5] = test system: human coronary smooth muscle cells (HCASMCs); assay: Low-oxygen induced apoptosis, active caspase-3/-7, smooth muscle cells
Experimental: as §1

[6] = test system: human umbilical vascular endothelial cells (HUVECs); assay: ROS level (H2O2 measurement) after oxLDL, HUVECs; settings: HUVECs pre-incubated with peptide; 50 ug/ml oxLDL for 2 hours
Experimental: The impact of FOL-026 peptide on human umbilical vascular endothelial cells (HUVECs) proliferation (FIG. 18a) and apoptosis (FIG. 18c) induced with low-oxygen condition was determined by BrdU uptake (n=8-9 per group) and active caspase-3/-7 (n=7-10 per group) separately. The ROS level (FIG. 18b) activated by 50 ug/ml oxidized Low-density Lipoprotein (oxLDL) for 2 hours in cells pre-incubated with FOL-026 peptides was assessed using H2O2 measurement (n=4-8 per group). Representative pictures of endothelial migration into an in vitro scratch injury were shown (FIG. 19a) and the wound closure rate (FIG. 19b) in HUVECs stimulated with increasing concentration of FOL-026 peptide was quantified by image J software (n=8-9 per group). Scale bar=150 um. Data are presented as means±SEM and acquired from 3 to 4 independent replicate tests. *P<0.05, **P<0.01, ****P<0.0001 by one-way ANOVA and Dunnett's post-hoc test.

Sequence	ROS formation (H2O2 measurement) [1]	c-MET gene expression ([2]; 10 nM and 1000 nM)	MMP2 gene expression ([2]; 10, 100, and 1000 nM)	NRP-1 gene expression ([2]; 10, 100, and 1000 nM)	VEGF-A gene expression ([2]; 10, 100, and 1000 nM)	IL-6 gene expression ([2]; 100 and 1000 nM)	MMP3 gene expression ([2]; 100 and 1000 nM)	TNF-α gene expression ([2]; 100 and 1000 nM)	wound closure (scratch wound assay) [3]	wound closure after NRP-1 knock-down (Example 11) ([3]; siRNA-NC/siNRP-1-transfected cells, printed as HUVECs, increasing concentration, 5 hours)	sFasL-induced apoptosis (caspase 3 and 7) ([4]; listed as FOL26)	smooth muscle cell apoptosis induced with low-oxygen condition (active caspase-3/-7) [5]	ROS levels induced by oxLDL (H2O2 measurement) [6]	sFasL-induced apoptosis (caspase 3 and 7) [4]
VDTYDGGISVVYGLR [FOL-026]	reduces ROS formation	reduced	induced	reduced	induced	induced	induced	induced	accelerates wound closure	positive effect on wound closure	reduced sFasL-induced apoptosis; also recorded: capable of reversing the sFasL-induced apoptosis	inhibits apoptosis	reduce the amount of ROS levels	–
AEIDSIELSYGIK [FOL56]	–	–	–	–	–	–	–	–	–	–	–	–	–	reduced sFasL-induced apoptosis; also recorded: capable of inhibiting, or trended towards inhibiting apoptosis
VDTYDGDISVVYGLR [FOL-005]	–	–	–	–	–	–	–	–	accelerate HCASMC wound closure	–	–	–	–	–
